Key:
Assay type in all cases: cell-based
[1] = test system: background amber suppression; assay: Background amber suppression (GFPY40 reporter, pylRS/tRNApyl, dnnAA without nnAA); settings: for reduction in background amber suppression levels: dnnAA at 0.5 mM, 1 mM and 2 mM; for % Reduction at 2 mM Decoy: reduction in GFP expression relative to control not exposed to dnnAA, 3 days
Experimental: The competitive assay for dnnAA inhibition in the presence of a high affinity substrate identified dnnAAs that compete for binding with to the pylRS and thus are specific inhibitors of the pylRS/tRNA. However, the decoy nnAA is intended to reduce the levels of background amber suppression in the absence of nnAA. To determine if background amber suppression levels could be reduced, we incubated cells containing the GFPY40 reporter construct and the pylRS/tRNApyl pair in medium containing one of the dnnAAs. To do this, HEK293 cells stably expressing pylRS were transiently transfected with a tRNA expression construct and the GFPY40 reporter cassette. After 3 days of incubation, cells were assayed for expression of GFP by flow cytometry and geometric mean fluorescence intensity of the samples determined. We have previously observed that cells containing the full complement of the pylRS/tRNA amber suppression system show detectable expression of the GFP reporter construct that is above what is observed in cells lacking the amber suppression system. […] To identify dnnAAs capable of reducing background amber suppression levels the transfected cells were incubated with each of the dnnAAs at 0.5 mM, 1 mM and 2 mM and GFP levels measured by flow cytometry.
The decrease in background amber suppression dependent GFP expression was dose dependent and improved as the dnnAA concentration increased. […] This feature is an attractive characteristic for platform development as it enables the repression of background amber suppression but the system can be activated upon addition of a strong pylRS substrate such as lys-azide. […] Their efficacy was quantified by the reduction in GFP expression relative to a control sample (not exposed to dnnAA) and the data are summarized in Table 1.

pylRS = biological target: T1, pylRS (Methanosarcina mazei, UniProt Q8PWY1); assay: In vitro GFPY40 functional assay: dnnAA competition with lys azide in HEK293 cells stably expressing pylRS; settings: for reduction of GFP expression relative to samples lacking dnnAA (geometric mean fluorescence intensity): lys azide with 0.5 mM, 1 mM and 2 mM dnnAA
T1 construct: expressed in transfected cells
Text: Effective dnnAAs were identified by their ability to compete with a high affinity substrate for pylRS (lys-azide) in an in vitro assay, for their ability to reduce background amber suppression levels observed with a reporter protein, and for their ability to improve the viability and function of cells previously selected for high pylRS/tRNA activity.
To identify analogues that could effectively compete for pylRS binding with lys-azide, dnnAAs were first tested for function in an in vitro functional assay based on the ability of cells expressing WT pylRS and tRNApyl to introduce a nnAA at a target site in the reporter protein GFPY40. This reporter contains an amber codon in its open reading frame that, in the absence of amber suppression, generates a truncated protein that is not fluorescent. In the event of amber suppression, a full length GFP protein is generated that is detectable by fluorescence detection methods. In this assay, HEK293 cells stably expressing pylRS, were transiently transfected with a tRNA expression construct and the GFPY40 reporter cassette. Cells were then incubated with 0.5 mM lys azide in the presence or absence of different concentrations of dnnAA ranging from 0.5 mM to 2 mM. GFP fluorescence levels were then quantified by flow cytometry. For this assay the proportion of fluorescent cells in each condition was determined and plotted. As the dnnAAs are expected to compete with the nnAA (lys-azide) for pylRS/tRNA binding, an effective dnnAA should reduce or prevent the expression of full length GFP (as described above dnnAAs can be delivered by the tRNA to the amber site, but cannot propagate protein synthesis).
A similar in vitro assay was used to gauge the effectiveness of the dnnAAs of Formula VIIB listed in Table 1 where a description of the amino acids tested and a summary of the results are shown For this assay the geometric mean fluorescence intensity of each sample was determined by flow cytometry and plotted. For each dnnAA tested control cells transfected with wild type GFP were measured as a positive control. In addition cells transfected with the reporter GFPY40 and exposed to 0.5 mM lys azide or 2 mM lys azide were used to determine maximal GFP expression levels in the absence of an inhibitor. In each case robust GFP expression levels were observed. To test whether any of the dnnAA could reduce the efficacy of GFP expression, cells were incubated in the presence of 0.5 mM, 1 mM and 2 mM […]. […] Thus, dnnAAs of the present invention can compete with the lys-azide nnAA for binding to the pylRS and interfere with the physiological mechanism of nnAA introduction. Cells transfected with the pylRS/tRNA pair and the GFPY40 reporter construct but not exposed to either lys-azide or a dnnAA were used to determine levels of background amber suppression and used as a negative control. In each case low GFP expression levels were observed.

[2] = test system: CHO cells stably expressing pylRS and tRNApyl and an IgG directed against her2/neu containing an amber codon; assay: Growth and viability of pylRS/tRNApyl cell line treated with lys azide and dnnAA
Text: To examine whether the dnnAAs of the invention could function to improve the viability of cells containing pylRS and tRNApyl we monitored the growth and viability of a cell line, stably expressing pylRS and tRNApyl. For this assay CHO cells stably expressing pylRS and tRNApyl and an IgG directed against her2/neu containing an amber codon in the heavy chain, shown to effectively incorporate nnAA into the expressed IgG thus producing an antibody containing a nnAA, were used for this experiment. Despite a high expression level of pylRS/tRNApyl pair, this cell line has very robust cell growth characteristics when grown in medium lacking nnAA. The presence of a highly expressed target containing an amber codon likely has a protective effect on the cells by supplying them with high levels of amber codons that absorb the amber suppression activity and protects the cells from the effects of background amber suppression at essential genes. However, upon addition of the nnAA (lys-azide) to the growth medium, and activation of the amber suppression machinery, a decrease in cell growth rate is observed. […] To determine whether a dnnAA can rescue this effect, cells cultured in serum free medium were grown to a cell density of 0.5×10^6 cells/mL and subsequently treated with 0.5 mM lys azide alone or in combination with 2 Mm dnnAA. Cell viability and cell numbers were monitored daily over seven days. Cells treated with lys azide alone reached a cell density just below 1×10^6 cells/mL on day 3 after nnAA addition and remained at this density for the remainder of the assay (seven days) (FIG. 15A) The lack of growth was not likely due to loss of viability as the culture retained high viability throughout the experiment (˜70% viable cells) (FIG. 15B) Cultures treated with 2 mM Compound of formula VIIB.4, or 2 mM Formula VIIB.1 in combination with 0.5 mM lys-azide supported continued growth of the culture that reached over 1.5×10^6 cells/mL and retained a cell viability of 90%.

pylRS/tRNA pair = biological target: T2, pylRS/tRNA pair (Methanosarcina mazei, UniProt Q8PWY1); assay: GFP assay: translational testing of pyrrolysine analogs as nnAAs; settings: nnAA 2 mM, 2-3 days
T2 construct: expressed in transfected cells; host or cells: HEK293 clone 3H7
Text: An in vitro cell based assay was developed to assess the compatibility of the pylRS/tRNA pair and the pyrrolysine analogs of the present invention (nnAAs) by and the efficiency of nnAAs integration into a target protein. For this, HEK293 cells stably expressing pylRS (3H7) were transiently transfected with plasmids for the expression of tRNApyl and a reporter construct encoding GFPY40 (containing amber codon in place of tyrosine at amino acid residue number 40 (where 1 is the initiator methionine)) using standard transfection protocols. Transfected cells were incubated with nnAAs at 2 mM for 2-3 days GFP production was analyzed qualitatively by visual inspection under the microscope. The GFP fluorescence was quantified by flow cytometry using an Accuri flow cytometer and the geometric mean of the fluorescent cells determined.
This cell based assay was used to determine whether the different nnAAs were suitable substrates for the pylRS and allowed its translation into a target protein. Cells expressing the PylRS/tRNApyl pair and containing a vector encoding the GFPY40 reporter gene were incubated in the presence of the nnAAs. nnAAs that are readily utilized by the PylRS/tRNApyl pair support the translation of the nnAA into the amber site of GFP and allow read-through of the gene producing full length GFP (fluorescent protein). The fluorescence intensity of the cells depends on the efficiency of nnAA incorporation. Thus, nnAAs that are poorly utilized produce weakly fluorescent or non-fluorescing cells. […] Furthermore, the relative expression levels in each sample was compared to those generated by substrates known to be efficiently utilized by pylRS.

[3] = 2 mM dnnAA with 0.5 mM lys-azide, seven days
[4] = Formula V analogs, geometric mean
[5] = 2 mM dnnAA with 0.5 mM lys-azide

T2 sequence (Q8PWY1 whole entry): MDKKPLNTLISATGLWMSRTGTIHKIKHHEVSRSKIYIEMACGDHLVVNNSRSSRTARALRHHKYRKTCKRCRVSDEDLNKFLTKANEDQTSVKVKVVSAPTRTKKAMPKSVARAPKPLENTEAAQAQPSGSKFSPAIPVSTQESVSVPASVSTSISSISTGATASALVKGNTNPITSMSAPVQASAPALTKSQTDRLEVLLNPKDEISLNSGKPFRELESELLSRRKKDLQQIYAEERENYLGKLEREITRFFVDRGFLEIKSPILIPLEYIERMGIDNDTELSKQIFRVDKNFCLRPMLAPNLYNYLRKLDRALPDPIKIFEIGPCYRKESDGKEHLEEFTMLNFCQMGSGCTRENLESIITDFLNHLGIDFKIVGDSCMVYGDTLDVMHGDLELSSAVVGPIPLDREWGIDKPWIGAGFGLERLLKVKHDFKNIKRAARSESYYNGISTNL
T1 sequence (Q8PWY1 whole entry): as above

With `O=C(O)CCCCCNC(=O)OCCCl` [Formula VIIB.3, 6-{[(2-chloroethoxy)carbonyl]amino}hexanoic acid] as the molecule, how does the “reduction in background amber suppression levels” value [1] read?
The value was “reduction in the background amber suppression levels”.

What about the “% Reduction at 2 mM Decoy” value [1] of the same molecule?
The value was 49.7%.

And the “reduction of GFP expression relative to samples lacking dnnAA (geometric mean fluorescence intensity)” value (pylRS)?
The value was “greatest reduction of GFP expression”.

What about the cell density [2, 3] of the same molecule?
Its cell density is < 0.5 ×10^6 cells/mL.

What about the cell viability [2, 3] of the same molecule?
The cell viability was 30-40%.

For `[N-]=[N+]=NCCOC(=O)NCCCC[C@H](N)C(=O)O` [Formula V.1, (2S)-2-amino-6-{[(2-azidoethoxy)carbonyl]amino}hexanoic acid], which “Positive GFP” value (pylRS/tRNA pair; Formula V analogs) is on record?
Its value is “Yes”.

What about the MFI (pylRS/tRNA pair; [4]) of the same molecule?
Its MFI is 931,289.

And the MFI (pylRS/tRNA pair; Formula V analogs, geometric mean, listed as V.1)?
Its MFI is 931289.

And the viable cells ([2]; 0.5 mM lys azide alone)?
Its viable cells is ~70%.

What about the cell density ([2]; 0.5 mM lys azide alone, day 3 to day 7) of the same molecule?
The cell density was “below 1 ×10^6 cells/mL”.

`[N-]=[N+]=NCCNC(=O)OCCCC[C@H](N)C(=O)O` [Formula VI.1, (2S)-2-amino-6-{[(2-azidoethyl)carbamoyl]oxy}hexanoic acid] was tested. Which MFI (pylRS/tRNA pair; Formula VI analogs) did it give?
The MFI was 904206.

What about the “Positive GFP Assay” value (pylRS/tRNA pair; Formula VI analogs) of the same molecule?
Its value is “incorporated in the GFP reporter gene and yield green cells and Yes”.

What does the source list for `[N-]=[N+]=NCCOC(=O)NCCCCCC(=O)O` [Formula VIIB.6, 6-{[(2-azidoethoxy)carbonyl]amino}hexanoic acid]?
reduction in background amber suppression levels [1]: reduction in the background amber suppression levels; % Reduction at 2 mM Decoy [1]: 32%; % Reduction at 2 mM Decoy ([1]; listed as VIIB.6): 32.7%; reduction of GFP expression relative to samples lacking dnnAA (geometric mean fluorescence intensity) (pylRS): greatest reduction of GFP expression

For `C#CCOC(=O)NCCCCCC(=O)O` [Formula VIIB.5, 6-{[(prop-2-yn-1-yloxy)carbonyl]amino}hexanoic acid], which “reduction in background amber suppression levels” value [1] is on record?
Its value is “reduction in the background amber suppression levels”.

And the “% Reduction at 2 mM Decoy” value [1]?
Its value is 35%.

What about the “% Reduction at 2 mM Decoy” value ([1]; listed as VIIB.5) of the same molecule?
Its value is 35.0%.

What about the “reduction of GFP expression relative to samples lacking dnnAA (geometric mean fluorescence intensity)” value (pylRS) of the same molecule?
The value was “relative reduction in GFP expression was much lower”.

For `C#CCOC(=O)NCCCC[C@H](N)C(=O)O` [Formula V.2, (2S)-2-amino-6-{[(prop-2-yn-1-yloxy)carbonyl]amino}hexanoic acid], which “Positive GFP” value (pylRS/tRNA pair; Formula V analogs) is on record?
The value was “Yes”.

What about the MFI (pylRS/tRNA pair; [4]) of the same molecule?
Its MFI is 1,676,250.

What about the MFI (pylRS/tRNA pair; Formula V analogs, geometric mean, listed as V.2) of the same molecule?
The MFI was 1676250.

How did the “% Reduction at 2 mM Decoy” value [1] turn out when `CC(C)(C)OC(=O)NCCCCCC(=O)O` [Formula VIIB.4, 6-{[(tert-butoxy)carbonyl]amino}hexanoic acid] was run?
Its value is 46.3%.

And the “number of fluorescent cells (GFPY40)” value (pylRS; 0.5 mM lys azide with dnnAA 0.5 mM to 2 mM)?
Its value is “concomitant reduction in the number of fluorescent cells”.

And the “GFP expression with dnnAA alone (amber codon readthrough)” value (pylRS; dnnAA alone, no lys azide)?
Its value is “did not induce GFP expression”.

What about the “effect on GFPwt expression (non-specific effects)” value (pylRS; reporter lacking an amber codon) of the same molecule?
Its value is “no effect on protein expression”.

What about the “prevention of cytostatic effects of amber suppression activation” value [2, 5] of the same molecule?
Its value is “prevent the cytostatic effects”.

What about the cell viability [2, 3] of the same molecule?
Its cell viability is 90%.

For `C=CCOC(=O)NCCCCCC(=O)O` [Formula VIIB.1, 6-{[(prop-2-en-1-yloxy)carbonyl]amino}hexanoic acid], which “reduction in background amber suppression levels” value [1] is on record?
The value was “reduction in the background amber suppression levels”.

And the “% Reduction at 2 mM Decoy” value [1]?
Its value is 62.5%.

And the “reduction of GFP expression relative to samples lacking dnnAA (geometric mean fluorescence intensity)” value (pylRS)?
The value was “greatest reduction of GFP expression”.

And the “prevention of cytostatic effects of amber suppression activation” value [2, 5]?
Its value is “prevent the cytostatic effects”.

And the cell viability [2, 3]?
Its cell viability is 90%.

With `C=CCNC(=O)OCCCC[C@H](N)C(=O)O` [Formula VI.3, (2S)-2-amino-6-{[(prop-2-en-1-yl)carbamoyl]oxy}hexanoic acid] as the molecule, how does the “Positive GFP Assay” value (pylRS/tRNA pair; Formula VI analogs) read?
The value was “incorporated in the GFP reporter gene and yield green cells and Yes”.

Reference: patent US9732367B2, “Cell lines” (MEDIMMUNE LIMITED, priority 2012, dated 2017)
